In the assay the target is T1, TbEIF4E5 (TbE5) (Trypanosoma brucei, UniProt Q38B99).
T1 sequence (Q38B99 1-195): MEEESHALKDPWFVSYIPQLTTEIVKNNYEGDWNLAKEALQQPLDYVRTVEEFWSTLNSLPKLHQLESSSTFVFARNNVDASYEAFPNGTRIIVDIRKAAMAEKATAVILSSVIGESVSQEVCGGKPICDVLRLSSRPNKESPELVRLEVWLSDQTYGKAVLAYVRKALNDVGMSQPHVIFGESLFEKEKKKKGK
Kind of assay: intrinsic protein fluorescence quenching titration. It is filed as binding.

The term Kd denotes the constant that tells how readily two partners part at equilibrium.

The molecule cap 4 registered a Kas (50 mM HEPES/KOH pH 7.2, 100 mM KCl, 0.5 mM EDTA, 2 mM DTT, 20 °C) of 0.55 ± 0.01.
The molecule `Nc1nc2c(ncn2[C@@H]2O[C@H](COP(=O)(O)OP(=O)(O)OP(=O)(O)O)[C@@H](O)[C@H]2O)c(=O)[nH]1` [GTP] had a Kd of around 27 µM.
On to `C[n+]1cn([C@@H]2O[C@H](COP(=O)(O)OP(=O)(O)OP(=O)(O)O)[C@@H](O)[C@H]2O)c2nc(N)[nH]c(=O)c21` [m^7GTP], for which binding was put at a Kd of 1.54 µM. This counts as single-digit micromolar.
As for `C[n+]1cn([C@@H]2O[C@H](COP(=O)(O)OP(=O)(O)OP(=O)(O)OC[C@H]3O[C@@H](n4cnc5c(N)ncnc54)[C@H](O)[C@@H]3O)[C@@H](O)[C@H]2O)c2nc(N)[nH]c(=O)c21` [m^7GpppA], binding was put at a Kd of 8.33 µM.

For the origin of these results see article PMC4105752 (RNA, 2014).
